Tested on: male C57BL/6J mice
Test: PCP-induced locomotion (Psychogenics)
Format: in vivo
Experimental: IP) can block AMPH-induced hyperlocomotion in female, but not male, mice. (B) Pretreatment with (+)-JRT (1 mg/kg, IP) […]
AMPH = (+)-amphetamine; PCP = phencyclidine; VEH = vehicle; ns = not significant. *p < 0.05, **p < 0.01, ***p < 0.001, ****p < 0.0001, as compared to the comparator(s) indicated by a horizontal bar. See Methods and SI Appendix, Table S1 for full details on statistics.
(1 picture or pasted object on this page, not shown here) […]
PCP-Induced Locomotion. The PCP-induced hyperlocomotion assay was performed by Psychogenics using male C57BL/6J mice that were approximately 8 weeks old at the time of the experiments. The experiment was performed during the animal’s light cycle phase. On the day of testing, animals were acclimated to the experimental room for at least 1 h prior to treatment. Animals were then administered with VEH or JRT (IP, 10 mL/kg) and placed in holding cages for 30 min, after which mice were placed in the open field chambers (27.3 x 27.3 x 30.3; Med Associates Inc., St Albans, VT). Baseline activity was recorded for 30 min. Next, mice received either PCP (5 mg/kg, IP, 10 ml/kg) or VEH and were returned to the open field chambers for a 60 min test session. Locomotion was assessed using consecutive infrared beam breaks. At the end of each session, the chambers were thoroughly cleaned. […]
Reads were aligned to the GRCm39 genome assembly using STAR, processed with Picard, and counted with the Subread software. Transcript inclusion criteria consisted of a minimum raw expression level of 25 transcripts in a minimum of 4 samples. Surrogate variable analysis was conducted with the sva package 2023 release v3.5.0 in R and normalization and differential expression analysis was performed with DESeq2 v4.3 with a baseMean threshold of 10. Heatmaps were created with the pheatmap v1.0.12 with sample-wise z-scores plotted and both row and column grouping allowed using pearson's distances and ward.D for clustering. Gene-wise selection criteria for heatmaps were a baseMean expression threshold of 50 to focus on robustly expressed genes, p value < 0.05, and presence in the top 250 genes sorted by absolute value of log2FC. Additionally, z score was capped at 2 for visualization purposes. Schizophrenia gene sets were extracted from a recent TWAS study (30).
For Figure S8G, the TWAS set was filtered for FDR < 0.01. Permutation testing was conducted to quantify the overlap of top genes from schizophrenia TWAS with the perm_test function from the bulkWarehouse package 2023 release v1.2.7.
Briefly, the intersection of top differentially expressed genes and top TWAS genes is compared to an empirical distribution created by calculating the intersection with our top DEGs when randomly sampling candidate genes from our dataset equal to the size of the TWAS sample. […]

SMILES: CCN(CC)C(=O)[C@@H]1C=C2c3cccc4ccn(c34)C[C@H]2N(C)C1 [(+)-JRT]
- Locomotion, infrared beam breaks (Figure 11B) ((+)-JRT (0.1) + PCP 5 mg/kg IP): 30482 ± 2310
- Locomotion, infrared beam breaks (Figure 11B) ((+)-JRT (0.3) + PCP 5 mg/kg IP): 26618 ± 2425
- Locomotion, infrared beam breaks (Figure 11B) ((+)-JRT (1) + PCP 5 mg/kg IP): 27253 ± 2401
